Experimental data as given in US10953071B2, “Compositions and methods for treatment of intracellular damage and bacterial infection” (priority 2011, dated 2021).
“Also recorded” adds a separate entry of the source. Where two headings read alike, the source gives them in different places.

What was measured:
[1] = system: bone marrow derived phagocytes exposed to Mtb; assay type: cell-based, mouse
[2] = system: Nos2; conditions: mouse, in vivo
[3] = system: ApoE−/− mice; assay: Atherosclerosis model, ApoE−/− mice fed high fat Western diet; assay type: in vivo, mouse
Procedure: Aortic root and arch sections were stained with HE. The mean atherosclerotic area (μm2)±SEM was quantified.
ORO histology was employed to identify lipids in the mouse atherosclerotic plaque. Lipids were quantified by red signal intensity percentage area of plaque±SEM. […] All animals still had very high cholesterol levels and to obtain a reading, the plasma was diluted to 1:10. After analysis, no statistical difference was seen between any group using one way ANOVA paired with Tukey's Multiple Comparison Test. […]
Treatments were administered via 150 μL i.p. injection every 3rd day, for a total of 7 weeks.

[4] = system: stimulated human T lymphocytes; assay: Cytokine production by anti-CD3/CD28 stimulated human mononuclear cells with Kv1.3 and IDE inhibitors; assay type: cell-based
Procedure: Peripheral blood was obtained from two healthy donors. Mononuclear cells were purified by Ficol-Hypaque centrifugation. […] The culture supernatants were collected 24 hours post-treatment and were assayed for eleven Th1/Th2 cytokines using a multiplex system (Bender, Cat. No. BMS810FF): IL-1beta, IL-2, IL-4, IL-5, IL-6, IL-8, IL-10, IL-12p70, TNF-alpha, TNF-beta, IFN-gamma.

[5] = system: Ca++ mobilization
Procedure: FITC-sPIF binding to PBMCs subsets was determined using flow cytometry. sPIF's effect on Ca++ mobilization was tested by Flex station.

[6] = system: C57bl6 mice; conditions: 0.3 nmol/g i.p.
Procedure: Peritonitis was induced by injecting 3 ml 4% thioglycolate i.p. and after 20 hours, the mice were anaesthetized and the peritoneal cavity was flushed with 5 ml sterile PBS. Subsequently, monocytes/macrophages were quantified with F4/80 and CD11b in flow cytometry.
Peritonitis was induced by injecting 3 ml 4% thioglycolate i.p. and after 20 hours, the mice were anaesthetized and the peritoneal cavity was flushed with 5 ml sterile PBS. Subsequently, monocytes and macrophages were quantified with F4/80 and CD11b in flow cytometry.

[7] = system: RAW (Macrophage cell line); conditions: PIF 200 nM, 2 or 5 day incubation, no LPS
Procedure: (§1) Mouse splenocytes were used for mixed Lymphocytes Reaction (MLR). Balb/c cells were cultured in the presence of irradiated C57/Bl cells for 4 days. […] Cell proliferation was tested by H3 Tymidine uptake assay. […] One representative experiment is shown out of four performed. […] Anti-CD3 antibodies were added to the medium for T cell activation. Cell proliferation was tested by H3 Thymidine uptake. […] At day 7, 100 ng/ml IFN γ was added. After 10 days cells were analyzed by FACS analysis using anti-B7-H1 antibodies. FIG. 2D illustrates murine macrophages were cultured with GM-CSF for 10 days. IFN-γ was added to the culture at day 7 for cell activation. […] This is relevant since B7-H1 is one of the newly defined inhibitory B7 family molecules. It is known that IFN gamma potently stimulates B7-H1 expression on APC. […] THP-1 cells were incubated for 48 hours, then were stimulated with […] and collected at 0, 1, 8, 12 and 24 hour time points. […] The 8 hour time point was selected to allow time for cell stimulation. The gene regulation comes quickly and the selected time point allows enough time for stimulation and not over/under. […] In the last 24 hours of the experiment, LPS was added to the culture for cell activation. Greiss reagent test was performed to detect NO secretion to the supernatant.
In the last 24 hours of the experiment, LPS was added to the culture for cell activation. […]

[8] = system: PBMCs; assay: Cytokine secretion of naïve and stimulated PBMCs; assay type: cell-based, human; conditions: for TH2 and TH1 cytokines secretion in activated PBMCs: anti-CD3 or anti-CD3/anti-CD28 stimulation
Procedure: FIG. 3A and FIG. 3B illustrate that mitogen stimulation enhances FITC-PIF binding to T and B cell populations. PBMC were cultured with PHA for 24 h. Binding of FITC-PIF to different PBMC populations was determined by two color flow cytometry. Binding was low (<10% in unstimulated cells a, upper panel from left to right) CD4+, CD8+, NK, (CD56+) and B (CD19+) cells. However, it led to a ˜30-fold increase in binding to b (lower panel from left to right), CD4+, CD8+ and B (CD19+) cells. Binding was unchanged for NK cells, even after a 72 hour incubation period. FIG. 3C, FIG. 3D, FIG. 3E, and FIG. 3F illustrate that sPIF promotes TH2/TH1 cytokine bias in stimulated PBMCs. […] FIG. 3B illustrates sPIF (50 nM); FIG. 3C illustrates PIFscr (50 nM); FIG. 3D illustrates sPIF (50 nM)+anti-CD3 mAb; FIG. 3E illustrates PIFscr+anti-CD3 mAb. sPIF affected variably stimulated PBMCs individual cytokines secretion. In contrast, some cytokine secretion in naïve PBMCs decreased (not shown). […] Cytokine secretion determined by Luminex 10-plex. […] PBMCs were cultured in the presence of anti-CD3/anti-CD28-Mab for 24-48 hours. […] The effect on PBMCs at 48 hours was less pronounced (data not shown). At the end of experiment mRNA was extracted and global gene expression was analyzed by using an Affymetrix chip.

[9] = system: THP-1 cells
[10] = Surface Plasmon Resonance, LPS binding to PIF-labeled sensor surface; design: species or system E. coli; conditions: LPS 5, 25 and 100 μM, immobilized peptide, preliminary results
Procedure: Surface Plasmon Resonance spectroscopy (SPR) was used to evaluate LPS and LPS receptors binding (TLR4-MD2 and CD14) to the PIF-labeled sensor surface. Two chemotypes of LPS (From E. coli O55:B5 and E. coli EH100) at 3 concentrations (5, 25 and 100 μM) were tested.

[11] = system: Balb/c splenocytes with irradiated C57/Bl cells; conditions: 4 days; 150 nM and 200 nM PIF significant
Procedure: as §1

[12] = system: B7-H1; conditions: 200 nM PIF, 10 days, IFN γ at day 7
Procedure: as §1

[13] = system: T cells; conditions: monocytes 10 days with 200 nM PIF, co-culture 4 days, anti-CD3
Procedure: as §1

[14] = system: THP-1 cells; remark: listed apart in the source
Procedure: as §1

[15] = system: human PBMCs

## IFNγ: phagocyte-activating cytokine
[1]
  IL-1a, IL-1b, TNFa, MIP-1alpha and KC response to Mtb, PIF and anti-Kv1.3, effect of IFN: lost
  MCP-1, IL-6 and IL-5 response to Mtb and PIF, effect of IFN: stopped

## MVRIKPGSANKPSDD [PIF]
[2]
  elevation of Nos2 expression in liver of semi-allogenic BMT mice: completely prevented
[3]; PIF 0.1 mg/kg/day, i.p.
  reduction of plaque area in the aortic root compared to PBS control: 30%
[3]; PIF 1 mg/kg/day
  plaque area of the aortic arch compared to both doses of scrPIF: reduction
[3]; PIF 1 mg/kg/day, i.p.
  reduction of plaque area in the aortic root compared to PBS control: 46%
  reduction of plaque area of the aortic arch compared to PBS control: 43%
[3]; higher dose of PIF (1 mg/kg/day)
  plaque area in the aortic root compared to both doses of scrPIF: statistically significantly reduced
[3]; mouse, in vivo
  CD68 in the aortic root and arch: reduces
  MCP-1 in the aortic root and arch: reduces
  VCAM-1 in the aortic root and arch: reduces
  atherosclerosis formation (protective effect): reduces
  lipids (Oil Red O staining) in the aortic root and arch: reduces
[1]
  MCP-1, IL-6 and IL-5 induction by Mtb, effect of PIF: further induced; also recorded: augmented
  MCP-1 secretion by isolated macrophages: increased
  MIG and IP10 chemokines, effect of PIF: modestly augmented
  TNF, IL-1a, IL-1b, IL-6, MCP-1, MIP1a and KC response of BMDCs to Mtb: increased
  TNF, IL-1α, IL-1β, MIP1α and KC induction by Mtb, effect of PIF: augmented
  VEGF and FGFb (growth factors) in BMDCs exposed to Mtb: augmented
  VEGF and FGFβ induction by Mtb, effect of PIF: promoted; also recorded: augmented
[4]; PIF 1, 10 and 50 nM, no stimulation, 24 hours
  Th1/Th2 cytokine analytes, PIF alone: no effect
[4]; concluded from cell based assay using specific IDE inhibitor
  binding to intracellular insulin degrading enzyme (IDE): bind
[5]
  action through Ca++ mobilization: does not act through Ca++ mobilization
[6]
  MCP-1 induced monocyte migration in mouse peritonitis model: inhibits
[7]
  baseline NO: did not affect
[8]
  TH2 and TH1 cytokines secretion in activated PBMCs: increased
[8]; listed as sPIF
  TH2 and TH1 cytokines secretion in activated PBMCs: promotes
[8]; naïve PBMCs
  TH1 (TNF-α, IL2) cytokines in naïve PBMCs: reduces
[8]; without TCR stimulation, 24-48 hours
  cytokine secretion, PIF alone: no significant promoting effect
[9]; PIF 1 μM
  MCP-1 induced transmigration of THP-1 cells: significantly reduced
[9]; PIF 10 μM
  MCP-1 induced transmigration of THP-1 cells: significantly reduced
[10]
  binding to LPS chemotypes (SPR): no apparent LPS binding
[11]
  allogenic lymphocyte proliferation in MLR: reduce cells proliferation in a dose dependent manner
[12]
  B7-H1 expression: up-regulates
[12]; listed as sPIF
  B7-H1 expression: significantly increased
[13]
  T cell proliferation with PIF-treated monocytes: reduced proliferation but did not block it
[14]
  VCAM-1, IL-12b and IFNg in THP-1 cells: reduced
[15]
  anti-CD3-Mab-stimulated proliferation and mixed lymphocyte reaction: blocked
